Assay results taken from publication PMC4370448, “Advanced Enzymology, Expression Profile and Immune Response of Clonorchis sinensis Hexokinase Show Its Application Potential for Prevention and Control of Clonorchiasis” (PLoS Neglected Tropical Diseases, 2015).

Columns and labels:
rCsHK [1] = target: T1, rCsHK (Clonorchis sinensis, UniProt G7YJ23); assay: G6PD-coupled NADPH formation at […] nm, Hill fit; assay type: biochemical; details: 3 mM glucose, 15 mM MgCl2, pH 8.5
T1 construct: gene CLF_109217
T1 sequence (G7YJ23 1-449): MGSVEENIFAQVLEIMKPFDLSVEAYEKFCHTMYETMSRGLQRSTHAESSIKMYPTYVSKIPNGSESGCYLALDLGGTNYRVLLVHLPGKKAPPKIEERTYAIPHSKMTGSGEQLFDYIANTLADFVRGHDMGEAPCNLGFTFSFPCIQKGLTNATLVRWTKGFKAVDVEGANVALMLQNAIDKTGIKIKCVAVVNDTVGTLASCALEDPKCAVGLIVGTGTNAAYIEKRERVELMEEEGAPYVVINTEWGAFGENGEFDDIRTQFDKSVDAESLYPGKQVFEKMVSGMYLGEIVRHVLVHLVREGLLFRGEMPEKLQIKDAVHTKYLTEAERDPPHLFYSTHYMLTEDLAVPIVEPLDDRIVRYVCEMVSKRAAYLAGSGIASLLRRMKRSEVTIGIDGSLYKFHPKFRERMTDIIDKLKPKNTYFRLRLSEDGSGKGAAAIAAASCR

rCsHK [2] = target: T1, rCsHK; assay: G6PD-coupled NADPH formation at […] nm; assay type: biochemical; details: read-out: % inhibition at 10 mM

| SMILES | inhibition at 10000 µM (rCsHK [2]) [%] | other results |
| --- | --- | --- |
| Nc1ncnc2c1ncn2[C@@H]1O[C@H](COP(=O)(O)O)[C@@H](O)[C@H]1O [AMP] | – | G6PD-coupled NADPH formation at 340 nm, Hill fit (rCsHK [1]; 0-5 mM, allosteric activator, mixed K+V+ with respect to ATP): AMP exhibited a mixed allosteric K+V+ effect |
| Nc1ncnc2c1ncn2[C@@H]1O[C@H](COP(=O)(O)OP(=O)(O)OP(=O)(O)O)[C@@H](O)[C@H]1O [ATP] | 13.8 | – |
| Nc1ccn([C@@H]2O[C@H](COP(=O)(O)OP(=O)(O)OP(=O)(O)O)[C@@H](O)[C@H]2O)c(=O)n1 [CTP] | 8.6 | – |
| C=C(OP(=O)(O)O)C(=O)O [PEP] | – | G6PD-coupled NADPH formation at 340 nm, Hill fit (rCsHK [1]; 0-10 mM, allosteric activator, mixed K+V+ with respect to ATP): PEP displayed allosteric activation of rCsHK with respect to ATP |
| Cc1cn([C@H]2C[C@H](O)[C@@H](COP(=O)(O)OP(=O)(O)OP(=O)(O)O)O2)c(=O)[nH]c1=O [TTP] | 14.3 | – |
| O=C(O)CC(O)(CC(=O)O)C(=O)O [citrate] | – | G6PD-coupled NADPH formation at 340 nm, Hill fit (rCsHK [1]; 0-10 mM, allosteric, K+V+ activator at 5 and 10 mM, net inhibition (K-V+) at 2 mM, with respect to ATP): Citrate exhibited an unusual mixed allosteric effect on rCsHK with respect to ATP |
